The text below walks through data of patent publication US7700609B2, “Compositions useful as inhibitors of protein kinases” (Vertex Pharmaceuticals Incorporated, priority 2003, dated 2010).

The target of the first assay is T1, Itk (Homo sapiens, UniProt Q08881).
T1 sequence (Q08881 1-620): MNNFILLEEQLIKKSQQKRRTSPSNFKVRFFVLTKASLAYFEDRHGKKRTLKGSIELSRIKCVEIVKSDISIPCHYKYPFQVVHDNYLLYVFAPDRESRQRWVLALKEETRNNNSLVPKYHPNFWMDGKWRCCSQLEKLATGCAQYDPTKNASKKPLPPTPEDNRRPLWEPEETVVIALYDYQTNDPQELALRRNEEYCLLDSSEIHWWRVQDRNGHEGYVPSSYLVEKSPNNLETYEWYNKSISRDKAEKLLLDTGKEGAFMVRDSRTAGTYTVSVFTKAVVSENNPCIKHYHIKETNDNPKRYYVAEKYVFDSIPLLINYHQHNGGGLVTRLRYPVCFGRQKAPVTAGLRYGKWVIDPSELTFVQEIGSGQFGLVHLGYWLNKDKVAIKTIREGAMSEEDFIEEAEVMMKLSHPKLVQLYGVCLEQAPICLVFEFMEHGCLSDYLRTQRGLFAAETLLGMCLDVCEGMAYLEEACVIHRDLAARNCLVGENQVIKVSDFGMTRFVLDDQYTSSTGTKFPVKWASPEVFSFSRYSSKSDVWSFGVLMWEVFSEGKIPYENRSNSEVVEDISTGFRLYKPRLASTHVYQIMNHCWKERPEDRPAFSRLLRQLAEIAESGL
Briefly: Itk inhibition assay: Alphascreen (Method B). The assay is classed as biochemical. The settings on record: 100 μM ATP. As for the experimental part:
(§1) The compounds of the present invention were evaluated as inhibitors of human Itk kinase using either a radioactivity-based, spectrophotometric or alphascreen assay.
Assays were carried out in a mixture of 20 mM MOPS (pH 7.0), 10 mM MgCl2, 0.1% BSA and 1 mM DTT. Final substrate concentrations in the assay were 100 μM ATP (Sigma Chemicals) and 2 μM peptide (Biotinylated SAM68 Δ332-443). Assays were carried out at 25° C. and in the presence of 10 nM Itk. An assay stock buffer solution was prepared containing all of the reagents listed above, with the exception of ATP and the test compound of interest. 25 μL of the stock solution was placed in each well of a 96 well plate followed by 1 μL of DMSO containing serial dilutions of the test compound (typically starting from a final concentration of 15 μM) in duplicate (final DMSO concentration 2%). The plate was preincubated for 10 minutes at 25° C. and the reaction initiated by addition of 25 μL ATP (final concentration 100 μM). Background counts were determined by the addition of 5 μL 500 mM EDTA to control wells containing assay stock buffer and DMSO prior to initiation with ATP. The reaction was stopped after 30 minutes by diluting the reaction 225-fold into MOPS buffer (20 mM MOPS (pH 7.0), 1 mM DTT, 10 mM MgCl2, 0.1% BSA) containing 50 mM EDTA to bring the final concentration of peptide to 9 nM.
AlphaScreen™ reagents were prepared according to the manufacturers instructions (AlphaScreen™ phosphotyrosine (P-Tyr-100) assay kit, PerkinElmer catalogue number 6760620C). Under subdued lighting, 20 μL of AlphaScreen™ reagents were placed in each well of a white half area 96 well plate (Corning Inc.—COSTAR 3693) with 30 μL of the stopped, diluted kinase reactions. Plates were incubated in the dark for 60 minutes prior to reading on a Fusion Alpha plate reader (PerkinElmer).
After removing mean background values for all of the data points, Ki(app) data were calculated from non-linear regression analysis using the Prism software package (GraphPad Prism version 3.0cx for Macintosh, GraphPad Software, San Diego Calif., USA).
For the compound `CC(C)(C)C(=O)OCc1nc2ccc3cnc(Nc4cccc(S(N)(=O)=O)c4)nc3c2s1` [II-36], the Ki is below 1000 nM.

With `NC1CCN(C(=O)c2cc3c(ccc4cnc(Nc5ccccc5)nc43)s2)C1` (stereo not shown) [Compound V-54], the Ki is below 1000 nM.

Compound `NS(=O)(=O)c1cccc(Nc2ncc3ccc4nc(N5CCOCC5)sc4c3n2)c1` [II-37] displayed a Ki below 1000 nM.

As for `NS(=O)(=O)c1cccc(Nc2ncc3c(n2)-c2sc(CO)nc2CC3)c1` [III-38], the Ki was below 1000 nM.

`CN1CCC(Nc2nc3c(s2)-c2nc(Nc4cccc(S(N)(=O)=O)c4)ncc2CC3)CC1` [III-35] showed a Ki below 1000 nM.

`CN(C)/C=N/S(=O)(=O)c1cccc(Nc2ncc3c(n2)-c2sc(N4CCN(C)CC4)nc2CC3)c1` [III-40] registered a Ki below 1000 nM.

Consider `CN1CCN(C(=O)c2cc3c(ccc4cnc(Nc5ccccc5)nc43)s2)CC1` [Compound V-50], for which the Ki is below 1000 nM.

Regarding `NCCCNC(=O)c1cc2c(ccc3cnc(Nc4cccc(S(N)(=O)=O)c4)nc32)s1` [Compound V-45], the Ki is below 1000 nM.

For the compound `CC(C)(C)OC(=O)N1CCN(C(=O)c2cc3c(ccc4cnc(Nc5cccc(S(N)(=O)=O)c5)nc43)s2)CC1` [Compound V-38], the inhibitory constant (Ki) is below 1000 nM.

Turning to `CC(C)(C)OC(=O)NC1CCN(C(=O)c2cc3c(ccc4cnc(Nc5cccc(S(N)(=O)=O)c5)nc43)s2)C1` (stereo not shown) [Compound V-47], the Ki was below 1000 nM.

As for `CN1CCN(c2nc3c(s2)-c2nc(Nc4cccc(S(N)(=O)=O)c4)ncc2CC3)CC1` [III-39], the Ki was below 1000 nM.

Compound `Cc1nc2c(s1)-c1nc(Nc3cccc(S(N)(=O)=O)c3)ncc1CC2` [III-4] showed an inhibitory constant (Ki) below 1000 nM.

Take `COc1cccc(-c2cc3c(s2)CCc2cnc(Nc4cccc(NC(C)=O)c4)nc2-3)c1` [Compound I-36]: the Ki was below 1000 nM.

In the case of `CCN(CC)c1nc2c(s1)-c1nc(Nc3cccc(S(N)(=O)=O)c3)ncc1CC2` [III-33], the Ki is below 1000 nM.

Consider `Cc1nc2ccc3cnc(Nc4cccc(S(N)(=O)=O)c4)nc3c2s1` [II-35], for which the Ki was below 1000 nM.

As to `NS(=O)(=O)c1cccc(Nc2ncc3c(n2)-c2sc(N4CCOCC4)nc2CC3)c1` [III-32], the Ki was below 1000 nM.

In the case of `Nc1cccc(Nc2ncc3ccc4sc(C(=O)N5CCOCC5)cc4c3n2)c1` [Compound V-51], the Ki was below 1000 nM.

Regarding `CC1(C)Cc2cnc(Nc3cccc(S(N)(=O)=O)c3)nc2-c2ccsc21` [Compound I-41], the Ki was below 1000 nM.

The compound `NS(=O)(=O)c1cccc(Nc2ncc3ccc4sc(C(=O)N5CCCCC5)cc4c3n2)c1` [Compound V-36] gave a Ki below 1000 nM.

Turning to `NS(=O)(=O)c1cccc(Nc2ncc3ccc4nc(N5CCCCC5)sc4c3n2)c1` [II-39], the Ki was below 1000 nM.

`CNCCNC(=O)c1cc2c(ccc3cnc(Nc4cccc(S(N)(=O)=O)c4)nc32)s1` [Compound V-43] yielded an inhibition constant Ki below 1000 nM.

Consider `CC(C)(C)OC(=O)NCCCNC(=O)c1cc2c(ccc3cnc(Nc4cccc(S(N)(=O)=O)c4)nc32)s1` [Compound V-39], for which the inhibition constant Ki is below 1000 nM.

In the case of `CN(CCNC(=O)c1cc2c(ccc3cnc(Nc4cccc(S(N)(=O)=O)c4)nc32)s1)C(=O)OC(C)(C)C` [Compound V-41], the Ki was below 1000 nM.

`NS(=O)(=O)c1cccc(Nc2ncc3ccc4nc(C(=O)N5CCNCC5)sc4c3n2)c1` [II-13] yielded a Ki below 1000 nM.

On to `CC(C)(C)OC(=O)NC1CCN(C(=O)c2cc3c(ccc4cnc(Nc5cccc(S(N)(=O)=O)c5)nc43)s2)CC1` [Compound V-46], for which the Ki was below 1000 nM.

`NS(=O)(=O)c1cccc(Nc2ncc3ccc4sc(C(=O)N5CCNCC5)cc4c3n2)c1` [Compound V-4]: the Ki was below 1000 nM.

`O=C(c1cc2c(ccc3cnc(Nc4ccccc4)nc32)s1)N1CCOCC1` [Compound V-52] yielded a Ki below 1000 nM.

Compound `NS(=O)(=O)c1cccc(Nc2ncc3c(n2)-c2sc(N4CCCCC4)nc2CC3)c1` [III-34] displayed an inhibitory constant (Ki) below 1000 nM.

In turn, `Nc1cccc(Nc2ncc3ccc4sccc4c3n2)c1` [II-34] displayed a Ki below 1000 nM.

`Cc1nc2c(s1)CCc1cnc(Nc3cccc(S(N)(=O)=O)c3)nc1-2` [IV-4] registered an inhibitory constant (Ki) below 1000 nM.

Compound `CN1CCN(C(=O)c2cc3c(ccc4cnc(Nc5cccc(S(N)(=O)=O)c5)nc43)s2)CC1` [Compound V-40] displayed a Ki below 1000 nM.

For `NC1CCN(C(=O)c2cc3c(ccc4cnc(Nc5cccc(S(N)(=O)=O)c5)nc43)s2)C1` (stereo not shown) [Compound V-49], the Ki is below 1000 nM.

With `NC1CCN(C(=O)c2cc3c(ccc4cnc(Nc5cccc(S(N)(=O)=O)c5)nc43)s2)CC1` [Compound V-48], the Ki is below 1000 nM.

For the compound `NS(=O)(=O)c1cccc(Nc2ncc3ccc4sc(C(=O)N5CCOCC5)cc4c3n2)c1` [Compound V-37], the Ki is below 1000 nM.

Compound `CC(C)(C)C(=O)OCc1nc2c(s1)-c1nc(Nc3cccc(S(N)(=O)=O)c3)ncc1CC2` [III-31] returned a Ki below 1000 nM.

Compound `CN(C)CCNC(=O)c1cc2c(ccc3cnc(Nc4cccc(S(N)(=O)=O)c4)nc32)s1` [Compound V-42] returned a Ki below 1000 nM.

As for `CCN(CC)c1nc2ccc3cnc(Nc4cccc(S(N)(=O)=O)c4)nc3c2s1` [II-38], the Ki is below 1000 nM.

Another assay has as its target T1, Itk. Kind of assay: Itk inhibition assay: radioactivity-based (Method A). The settings on record: 15 μM ATP, read-out: IC50 in the radioactive incorporation assay (Method A). In kind it is biochemical. As to the method:
as §1
Assays were carried out in a mixture of 100 mM HEPES (pH 7.5), 10 mM MgCl2, 25 mM NaCl, 0.01% BSA and 1 mM DTT. Final substrate concentrations were 15 μM [γ-^33P]ATP (400 μCi ^33P ATP/μmol ATP, Amersham Pharmacia Biotech/Sigma Chemicals) and 2 μM peptide (SAM68 protein Δ332-443). Assays were carried out at 25° C. in the presence of 30 nM Itk. An assay stock buffer solution was prepared containing all of the reagents listed above, with the exception of ATP and the test compound of interest. 50 μL of the stock solution was placed in a 96 well plate followed by addition of 1.5 μL of DMSO stock containing serial dilutions of the test compound (typically starting from a final concentration of 15 μM with 2-fold serial dilutions) in duplicate (final DMSO concentration 1.5%). The plate was pre-incubated for 10 minutes at 25° C. and the reaction initiated by addition of 50 μL [γ-^33P]ATP (final concentration 15 μM).
The reaction was stopped after 10 minutes by the addition of 50 μL of a TCA/ATP mixture (20% TCA, 0.4 mM ATP). A Unifilter GF/C 96 well plate (Perkin Elmer Life Sciences, Cat no. 6005174) was pretreated with 50 μL Milli Q water prior to the addition of the entire reaction mixture (150 μL). The plate was washed with 200 μL Milli Q water followed by 200 μL of a TCA/ATP mixture (5% TCA, 1 mM ATP). This wash cycle was repeated a further 2 times. After drying, 30 μL Optiphase ‘SuperMix’ liquid scintillation cocktail (Perkin Elmer) was added to the well prior to scintillation counting (1450 Microbeta Liquid Scintillation Counter, Wallac).
IC50 data were calculated from non-linear regression analysis of the initial rate data using the Prism software package (GraphPad Prism version 3.0cx for Macintosh, GraphPad Software, San Diego Calif., USA).
Regarding `NS(=O)(=O)c1cccc(Nc2ncc3c(n2)-c2cc(-c4cccc([N+](=O)[O-])c4)sc2CC3)c1` [Compound I-13], the IC50 was below 1000 nM.

Consider `COc1cccc(OC)c1-c1cc2c(s1)CCc1cnc(Nc3cccc(S(N)(=O)=O)c3)nc1-2` [Compound I-14], for which the IC50 was below 1000 nM.

Consider `COc1cccc(-c2cc3c(s2)CCc2cnc(Nc4cccc(S(C)(=O)=O)c4)nc2-3)c1` [Compound I-24], for which the IC50 was below 1000 nM.

For `COc1cccc(-c2cc3c(s2)CCc2cnc(Nc4cccc(O)c4)nc2-3)c1` [Compound I-19], the IC50 is below 1000 nM.

As to `COc1ccc(-c2cc3c(s2)CCc2cnc(Nc4cccc(S(N)(=O)=O)c4)nc2-3)cc1` [Compound I-11], the IC50 is below 1000 nM.

Consider `NS(=O)(=O)c1cccc(Nc2ncc3c(n2)-c2cc(-c4cccc(C(=O)O)c4)sc2CC3)c1` [Compound I-4], for which the IC50 was below 1000 nM.

As for `NS(=O)(=O)c1cccc(Nc2ncc3c(n2)-c2cc(-c4ccsc4)sc2CC3)c1` [Compound I-5], the IC50 was below 1000 nM.

Consider `NS(=O)(=O)c1cccc(Nc2ncc3c(n2)-c2cc(-c4cccc(Cl)c4)sc2CC3)c1` [Compound I-15], for which the IC50 is below 1000 nM.

Turning to `NS(=O)(=O)c1cccc(Nc2ncc3c(n2)-c2cc(-c4ccccc4)sc2CC3)c1` [Compound I-1], the IC50 was below 1000 nM.
